Paper PMC5177663 (Frontiers in Pharmacology, 2016)

How the values were obtained:
[1] = system: middle-aged mice; experiment: contextual serial discrimination (CSD) task, contextual memory; assay type: in vivo, C57/Bl6 mice; settings: for effect on SCM scores as compared to vehicle: Experiment 1, middle-aged mice, 9 days oral; for strength of contextual memory (SCM) score (% correct responses - % interference responses): Experiment 2, middle-aged mice, NS vs vehicle
Excerpt: The memory task and apparatus has been fully described previously ([Chauveau et al., 2009]). The contextual serial discrimination (CSD) task is based on two successive discriminations in a four-hole board which can be retrieved with the help of specific temporal and contextual cues associated with each of them.
The acquisition phase took place in room A where animals learned two consecutive spatial discriminations (D1 and D2; Figure 1A) which differed by the color and texture of the floor and were separated by a 2-min delay interval. For both D1 and D2, 10 20-mg food pellets were available during the 6-min exploration sessions; for D2 specifically, the baited hole was consistently located in the opposite symmetrical hole. Environmental cues made of colored paper sheets were positioned at 1.00 m above the board. At the end of the acquisition phase, mice returned in the animal’s room for 24 h. Animals retained for the test phase in the present study for both Experiments 1 and 2 have eaten at least 7–8 pellets/10 during both acquisitions.
Mice were replaced on the D1 floor in the board without any pellet in the apparatus and were allowed to freely explore for 6 min during which the number of head-dips in each hole was counted. This allowed measures of the % of “correct responses” (head-dips into the hole previously baited on the same floor-context), the % of “interference responses” (head-dips into the hole previously baited at D2, on the other floor-context) (Figure 1B) and of the “strength” of “contextual memory” score (SCM) (% correct responses - % interference responses). Thus, since correct responses are based on the use of the internal context (color of the floor) and interferent responses are based on the use of spatial allocentric cues previously associated with the other floor, thus the trend of SCM score toward a positive difference represents the gain of internal contextual memory, at the expense of allocentric spatial one.
The two last administrations were delivered 1 h before the acquisition and test phases.
(§1) Independent groups of mice (N = 10 per group) were used. An additional group composed by young vehicle mice (4–5 months young-vehicles, N = 10) was added for determination of the aging effect on both memory and phosphorylated CREB immunoreactivities, as compared to middle-aged Vehicles. For the immunohistochemical study, animals submitted to D1 memory testing were compared to “naïve” mice isolated in the colony room (with N = 5 per group; Naïve condition) and that underwent the food deprivation procedure and drug treatments as behaving animals (Test condition).

[2] = system: phosphorylated CREB (pCREB); experiment: pCREB immunohistochemistry after behavioral testing; assay type: in vivo, C57/Bl6 mice; settings: test condition
Description: as §1
Thirty minutes after completion of the test session, mice were deeply anesthetized (Avertin, 10 mL/kg intraperitoneally i.p.), and perfused transcardially with an ice-cold solution of 4% paraformaldehyde in phosphate buffer (0.1 M, pH 7.4). After perfusion, brains were removed and post-fixed overnight in the same fixative at 4°C. Brains were then put in a sucrose solution (30% in Tris Buffer 0.1 M, pH 7.4) during 24 h. They were then frozen and cut in […] coronal free-floating sections with a freezing microtome (Leica) to proceed to immunochemistry.
Total CREB (tCREB) and phosphorylated CREB (pCREB) immunostainings were performed as described in full previously ([Vandesquille et al., 2013]; [Dominguez et al., 2014], [2016]). Countings were made in the following brain regions according to [Paxinos and Franklin (2001)] atlas: the CA1 of the dorsal (dCA1) and ventral (vCA1) hippocampus, the prelimbic cortex (PL), the dorsal striatum (St), the basolateral amygdala nucleus (BLA) and the medial septum nucleus (MS). Digital images were captured at 10X magnification using an Olympus (BX50) and an imaging analysis system (ImageJ®). At least six serial sections for each brain region were analyzed using a computerized image analysis system (Visiolab 2000®, Biocom, and V4.50). Quantification was expressed as mean number of positive nuclei per mm^2.

[3] = system: acetylcholine extracellular levels; experiment: intracerebral microdialysis, acetylcholine in mPFC and ventral hippocampus; assay type: in vivo, Wistar (Han) rats; settings: at 30 min
Description: The locomotor activity of the rats was recorded simultaneously during the sampling as a control method to assess a possible contribution of the handling stress and drug administration to microdialysis data.
Male Wistar (Han) rats, weighting about 265 g, were used for the experiment. At their arrival at facility, rats were housed in humidity and temperature controlled room on a 12h light/dark cycle (light on at 6:00 h) with water and food available ad libitum. Rats were anaesthetized with isoflurane and stereotaxically implanted with two guide cannula: one into the ventral hippocampus (vHPC: Interaural + 3.7 mm, Lateral + 4.8 mm, Ventral -3.8 mm providing the final -8.0 mm for the tip of the microdialysis probe) and the second into the medial prefrontal cortex (mPFC: Interaural + 12.2 mm, Lateral - 0.5 mm, Ventral -1.6 mm providing the final -5.6 mm for the tip of the microdialysis probe). After a recovery of 5 days, a microdialysis probe was inserted into the each respective guide cannula of awake rat. The probes were perfused at a constant flow-rate of 1 µl/min with sterile artificial CSF solution in the absence of an AChE inhibitor (148 mM NaCl, 4 mM KCl, 0.8 mM MgCl2, 1.4 CaCl2, 1.2 mM Na2HPO4, 0.3 mM NaH2PO4, pH 7.2). Following 120-min stabilization period, the samples were collected every 30 minutes. The first 3 samples (-90 to 0 min) were taken for determination of basal extracellular levels of ACh. […] After finalizing the experiment, the animals were sacrificed by an overdose of isoflurane and dislocation of the neck.
The levels of ACh in the microdialysates were determined by high-performance liquid chromatography (HPLC) linked to a postcolumn immobilized enzyme reactor followed by electrochemical detection. Briefly, the HPLC system (HTEC-500, Eicom Corp.) included a pulse-free microflow pump, a degasser and an amperometric detector equipped with a platinum electrode. The potential of the working electrode vs. Ag/AgCl ref. electrode was set to +0.45 V vs. an Ag/AgCl reference elctrode. Samples were injected by use of a CMA/200 Refrigerated Microsampler (CMA/Microdialysis). The chromatograms were recorded and integrated by use of a computerized data acquisition system (DataApex, Prague, Czech Republic). ACh was separated on a 150 x 2.0 I.D. mm narrow-bore column, packed with C18 polymer gel, 4 μm particle size. The enzyme reactor AC-ENZYMPAK II (Eicom Corp.) was used. The mobile phase was a 50 mM potassium hydrogen carbonate buffer containing 3.7 mM sodium 1-octanesulfonate, 0.13 mM EDTA-2Na, final pH 7.2. […] Determination of ACh levels in the groups of rats treated with drugs and vehicle was performed in blind conditions.

[4] = in vivo
Description: The sampling times are 30 min, 1, 2, 4, and 6 h. In each mouse, two time points of blood sampling were performed. Plasma was extracted from the blood sample by centrifugation (+4°C, 3000 g, 10 min) and stored at -80°C. Then, plasma samples were sent in dry ice to MDS (MDS Pharma Services, Switzerland) for the pharmacokinetic analysis.

[5] = system: mice; experiment: primary observation (IRWIN) test; assay type: in vivo; settings: pharmacological doses, alone or in combination, data not shown
[6] = system: H3 receptors; design: method as in Panayi et al., 2014; settings: rats, mice, monkeys memory paradigms; ref Panayi et al., 2014; cited from earlier work
[7] = middle-aged mice, Donepezil 0.3 mg/kg (ANOVA factor)

SMILES: COc1cc2c(cc1OC)C(=O)C(CC1CCN(Cc3ccccc3)CC1)C2 (centres unmarked) [Donepezil, reference compound]
- effect on SCM scores as compared to vehicle ([1]; Donepezil alone at all doses (0.1 and 0.3 mg/kg)): did not show significant effect
- strength of contextual memory (SCM) score (% correct responses - % interference responses) ([1]; Donepezil 0.3 mg/kg alone): +7.48 ± 3.60
- increase of pCREB expression in the MS ([2]; Donepezil alone (0.3 mg/kg) as compared to vehicle): +174.3%
- effect on pCREB immunopositive cells in the MS [2, 7]: significant increase
- effect on pCREB immunopositive cells in the dCA1 [2, 7]: significant increase
- maximal increase of ACh levels ([3]; rat mPFC, Donepezil 0.1 mg/kg i.p.): 175 % of predrug values
- maximal increase of ACh levels ([3]; rat mPFC, Donepezil 0.3 mg/kg i.p.): 216 % of predrug values
- maximal increase of ACh levels ([3]; rat vHPC, Donepezil 0.1 mg/kg i.p.): 180 % of predrug values
- maximal increase of ACh levels ([3]; rat vHPC, Donepezil 0.3 mg/kg i.p.): 207 % of predrug values

SMILES: NC(=O)c1ccc(OCCCN2CC3CCCC3C2)cc1 (centres unmarked) [S 38093]
- effect on SCM scores as compared to vehicle ([1]; S 38093 0.1 mg/kg alone): did not show significant effect
- effect on SCM scores as compared to vehicle ([1]; S 38093 1.0 mg/kg alone): did not show significant effect
- strength of contextual memory (SCM) score (% correct responses - % interference responses) ([1]; S 38093 0.1 mg/kg alone): -14.3 ± 5.76
- strength of contextual memory (SCM) score (% correct responses - % interference responses) ([1]; S 38093 0.3 mg/kg alone): +5.19 ± 6.68
- AUC ([4]; C57/Bl6, mouse, po, 0.1 mg/kg): 9.56 ng·h/mL
- Cmax ([4]; C57/Bl6, mouse, po, 0.1 mg/kg): 3.04 ng/mL
- Tl/2 ([4]; C57/Bl6, mouse, po, 1 mg/kg): 2.37 h
- AUC ([4]; C57/Bl6, mouse, po, 1 mg/kg): 92.4 ng·h/mL
- Cmax ([4]; C57/Bl6, mouse, po, 1 mg/kg): 55.6 ng/mL
- plasma exposure when administered as a combination ([4]; mouse): no increase
- effect on pCREB immunopositive cells in the dCA1 and the MS ([2]; middle-aged mice, S 38093 at both doses (0.1 and 0.3 mg/kg)): no significant effect
- maximal increase of ACh levels ([3]; rat mPFC, S 38093 3 mg/kg i.p., n.s.): 158 % of predrug values
- maximal increase of ACh levels ([3]; rat mPFC, S 38093 10 mg/kg i.p.): 234 % of predrug values
- maximal increase of ACh levels ([3]; rat vHPC, S 38093 3 mg/kg i.p.): 153 % of predrug values
- maximal increase of ACh levels ([3]; rat vHPC, S 38093 10 mg/kg i.p.): 184 % of predrug values
- observable clinical signs [5]: did not induce any observable clinical signs
- mean pharmacological dose with procognitive properties [6]: 0.3 mg/kg
